US20230381142A1, “ANTILEISHMANIAL COMPOUNDS, COMPOSITIONS AND USE THEREOF” (TRUSTEES OF BOSTON UNIVERSITY, priority 2022, published 2023)
pEC50: −log10 of the molar value. Values after ≈ are worked out from the molar mass of the structure shown.

What was measured:
human serum albumin = human serum albumin (Homo sapiens, UniProt P02768); assay: Human serum albumin (HSA) binding, chromatographic; format: in vitro ADME
Description: The percentage of compound bound to human serum albumin was measured using a chromatographic method as described. Briefly, each compound was assayed on an immobilized HSA column and gradient retention times measured, with chromatographic peak detection by UV. Each retention time was then converted to a % HSA bound value using a calibration set of compounds with a known % HSA binding.

[1] = Property forecast index (PFI = ChromLogD7.4 + aromatic rings); format: physicochemical
Description: At the outset of the project, compound 1 was evaluated against GSK's established criteria for antileishmanial compound advancement (Table 2). Some of these assessments were performed on racemic 1, while chiral separation was also pursued of the 1 racemate to determine the active enantiomer. […] Based on this promising profile, it progressed into medicinal chemistry optimization to better understand structure-activity relationships (SAR) toward improved potency, as well as structure-property relationships (SPR) with an eye toward reducing PFI and plasma protein binding.

HepG2 cells = assay: HepG2 cytotoxicity; format: cell-based; details: Homo sapiens; toxicity against HepG2 cells
Description: Given the literature precedents described above and the apparent narrow tolerance for R^3 substitutions observed in the primary screen compounds, a thorough and methodical assessment was undertaken of tolerated groups at the three points of diversity (R^1/R^2/R^3) for the core. At this stage of the project, all analogues were assessed using a battery of assays performed in-house at GlaxoSmithKline. For antileishmanial activity, GSK's inMac assay was utilized. This assay provides two readouts of compound potency: average number of intracellular amastigotes per infected cell (AMMAC) EC50, percentage of infected cells per well (INFCELL) EC50, as well as a toxicity output derived from the number of host cells (MAC EC50). In addition, compounds were assessed for toxicity against HepG2 cells (HEPG2 EC50). Here, AMMAC EC50 values were focused on for relative potency assessments. […] It should be noted that for all compounds assessed in this project, the measured toxicity against THP-1 macrophages either equaled or exceeded that of HepG2 hepatocytes, therefore the MAC SI is used here as the more conservative estimate of therapeutic index.

host THP-1 macrophages = assay: GSK inMac assay, host cell toxicity readout (LD MAC); format: cell-based, human; details: Homo sapiens, THP-1, cytotoxicity against host THP-1 macrophages
Outline: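 MAC EC50 reflects THP-1 host cell counts, measured within GSK's inMac L. donovani infection assay that also scores intracellular amastigotes and infected-cell percentage.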

[2] = Artificial membrane permeability (AMP); format: in vitro ADME; details: PAMPA, pH 7.4
Description: Passive permeability of compounds via rate of permeation through an artificial phospholipid membrane at pH 7.4 was measured in a high-throughput format, in duplicate. A solution of 1.8% phosphatidylcholine in 1% decane was added to a 96-well Millicell filter plate along with 250 μL of 50 mM phosphate buffer, pH 7.4 on the donor side, and 100 μL of the same buffer solution on the receiver side. The assay plate was shaken for 45 minutes before adding test compounds. Test compounds were then added to the filter plate and then incubated at room temperature with shaking for three hours. The donor and receiver solutions were next transferred to a 384-well plate for analysis by LC/MS.

[3] = Kinetic aqueous solubility by CLND; format: physicochemical; details: kinetic from dmso stock, high-throughput CLND
Description: Solubility of compounds using ChemiLuminescent Nitrogen Detection (CLND) was measured as described. Solubility of compounds using Charged Aerosol Detection (CAD) was measured as described. Solubility of solid compounds in Fasted Simulated Intestinal Fluid (FaSSIF) was measured as described.

[4] = test system: L. donovani intracellular amastigotes infecting THP-1 macrophages; assay: GSK intramacrophage L. donovani assay (LD AMMAC, inMac; Assay Conditions C); format: cell-based; details: Leishmania donovani; growth inhibition of L. donovani intracellular amastigotes infecting THP-1 macrophages; read-out: LD AMMAC EC50
Outline: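 EC50 values come from counting amastigotes per infected THP-1 macrophage (AMMAC). Parallel read-outs give percentage of infected cells per well (INFCELL) and a macrophage-number toxicity EC50 (MAC).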

[5] = aqueous medium (not further specified)

Sequence of human serum albumin (P02768 25-609): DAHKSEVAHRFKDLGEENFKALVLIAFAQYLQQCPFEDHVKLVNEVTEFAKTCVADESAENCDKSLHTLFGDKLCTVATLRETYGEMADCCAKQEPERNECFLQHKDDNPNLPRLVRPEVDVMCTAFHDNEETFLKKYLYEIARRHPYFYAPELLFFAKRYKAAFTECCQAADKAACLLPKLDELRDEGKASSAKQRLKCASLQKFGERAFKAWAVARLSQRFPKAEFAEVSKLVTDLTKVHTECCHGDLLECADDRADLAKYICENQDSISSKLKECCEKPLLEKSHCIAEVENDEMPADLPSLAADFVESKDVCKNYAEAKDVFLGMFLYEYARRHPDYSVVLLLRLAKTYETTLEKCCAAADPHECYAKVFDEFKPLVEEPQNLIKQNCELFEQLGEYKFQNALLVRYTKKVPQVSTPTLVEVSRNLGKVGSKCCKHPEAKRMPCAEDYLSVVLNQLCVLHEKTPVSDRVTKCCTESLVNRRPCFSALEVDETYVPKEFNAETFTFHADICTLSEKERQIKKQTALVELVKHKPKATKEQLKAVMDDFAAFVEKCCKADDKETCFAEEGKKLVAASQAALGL

HSA Binding (human serum albumin)	PFI [1]	Papp at 3 h [2]	solubility [3, 5]	pEC50 [4]	solubility ([3]; aqueous medium)	Structure (SMILES)	pEC50 (HepG2 cells)	pEC50 (host THP-1 macrophages)
96.9%	9.2	33 ×10⁻⁶ cm/s	22 µM (≈ 8.71 µg/mL)	5.40	–	COc1ccc(N2C(=O)c3[nH]nc(CC(C)C)c3C2c2ccc(Cl)cc2)cc1 (stereo not drawn) [Compound 47]	4.30	4.80
97.2%	9.3	42 ×10⁻⁶ cm/s	9 µM (≈ 3.96 µg/mL)	5.20	–	COc1ccc(N2C(=O)c3[nH]nc(CC(C)C)c3C2c2ccc(Br)cc2)cc1 (stereo not drawn) [Compound 48]	4.30	4.80
96.9%	9.3	21 ×10⁻⁶ cm/s	12 µM (≈ 5.15 µg/mL)	5.10	–	COc1ccc(N2C(=O)c3[nH]nc(CC(C)C)c3C2c2ccc(C(F)(F)F)cc2)cc1 (stereo not drawn) [Compound 49]	4.30	4.80
90.7%	4.5	< 0.3 ×10⁻⁶ cm/s	≥ 470 µM	< 4.30	–	COc1ccc(N2C(=O)c3[nH]nc(CC(C)C)c3C2c2ccc(C(=O)O)cc2)cc1 (stereo not drawn) [Compound 50]	< 4.00	< 4.30

Continued, compound first:

Structure (SMILES)	HSA Binding (human serum albumin)	PFI [1]	Papp at 3 h [2]	solubility [3, 5]	pEC50 [4]	solubility ([3]; aqueous medium)	pEC50 (HepG2 cells)	pEC50 (host THP-1 macrophages)
COC1CCC(N2C(=O)c3[nH]nc(CC(C)C)c3C2c2ccc(F)cc2)CC1 (stereo not drawn) [Compound 36]	92.1%	7.3	57 ×10⁻⁶ cm/s	≥ 450 µM	4.60	–	< 4.00	< 4.30
CC(C)Cc1n[nH]c2c1C(c1ccc(F)cc1)N(C1CCC(N(C)C)CC1)C2=O (stereo not drawn) [Compound 37]	81.1%	4.6	13 ×10⁻⁶ cm/s	≥ 446 µM	4.60	–	< 4.00	< 4.30
CC(C)Cc1n[nH]c2c1C(c1ccc(F)cc1)N(C1CCOCC1)C2=O (stereo not drawn) [Compound 38]	90.2%	6.5	49 ×10⁻⁶ cm/s	≥ 381 µM	4.50	–	< 4.00	< 4.30
CC(C)Cc1n[nH]c2c1C(c1ccc(F)cc1)N(CC1CCN(C)C1)C2=O (stereo not drawn) [Compound 40]	77.5%	4.8	< 1 ×10⁻⁶ cm/s	≥ 351 µM	< 4.30	–	< 4.00	< 4.30
COCCN1C(=O)c2[nH]nc(CC(C)C)c2C1c1ccc(F)cc1 (stereo not drawn) [Compound 41]	90.2%	6.7	52 ×10⁻⁶ cm/s	≥ 421 µM	< 4.30	–	< 4.00	< 4.30
COc1ccc(N2C(=O)c3[nH]nc(CC(C)C)c3C2c2ccc(F)cc2)c(OC)c1 (stereo not drawn) [Compound 43]	96.2%	8.5	17 ×10⁻⁶ cm/s	–	4.70	138 µM (≈ 56.5 µg/mL)	4.20	4.50
COC(=O)c1ccc(C2c3c(CC(C)C)n[nH]c3C(=O)N2c2ccc(OC)cc2)cc1 (stereo not drawn) [Compound 51]	95%	8.2	38 ×10⁻⁶ cm/s	44 µM (≈ 18.5 µg/mL)	4.60	–	4.20	4.40
COc1ccc(N2C(=O)c3[nH]nc(CC(C)C)c3C2C2CCCCC2)cc1 (stereo not drawn) [Compound 52]	97.6%	8.5	33 ×10⁻⁶ cm/s	29 µM (≈ 10.7 µg/mL)	5.10	–	4.30	4.60
